Measured values published in paper PMC5238392, “Origin of anti-tumor activity of the cysteine-containing GO peptides and further optimization of their cytotoxic properties” (Scientific Reports, 2017).
Read-outs that look alike come from different tables or passages of the source. Square brackets hold non-standard residues; d marks the D form. Peptide text beside a SMILES is read from it.

Key:
[1] = cited from earlier work
Excerpt: Some interesting examples of peptides with presumed DO mechanism can also be found in the literature. […] The efficiency of this peptide was critically dependent on the two contiguous cysteines: mutating these residues to alanines or serines completely abrogated its activity, whereas other alterations such as sequence reversal preserved the activity.

[2] = target: T1, reduced and denatured hen egg white lysozyme (Gallus gallus, UniProt P00698); assay: Lysozyme oxidative refolding assay (disulfide oxidoreductase activity); type: biochemical; conditions: 1 mM peptide, pH 8.5, room temperature
T1 construct: Hen egg white lysozyme (Amresco, USA) was reduced/denatured and lyophilized; purchased Amresco, USA; host or cells: hen egg white
T1 sequence (P00698 19-147): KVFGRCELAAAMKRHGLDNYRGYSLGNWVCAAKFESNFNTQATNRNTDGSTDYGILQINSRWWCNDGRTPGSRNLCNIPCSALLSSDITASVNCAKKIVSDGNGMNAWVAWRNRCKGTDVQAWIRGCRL
Excerpt: We have also conducted in vitro experiments to directly probe disulfide oxidoreductase properties of GO-202 peptide. For this purpose we have used the well-established lysozyme refolding assay. In brief, GO-202 is applied to the sample of reduced and denatured hen lysozyme. The protein then undergoes oxidative refolding, assisted by GO-202 which plays the role of disulfide oxidase (isomerase). After a certain interval of time (Tox) this process is quenched by adding an aliquot of acid and the sample is loaded on the reverse phase column.
Figure 10 Oxidative refolding of hen egg lysozyme as monitored by reverse-phase HPLC. […] Top panel (red traces) illustrate protein renaturation in the presence of GO-202; bottom panel (blue traces) represent control measurements with no peptide. The reaction time Tox ranging from 0 to 75 mins is listed on the left side of the individual chromatograms.
Hen egg white lysozyme (Amresco, USA) was reduced/denatured and lyophilized according to the protocol by van den Berg et al.[54]. It was then dissolved in buffer B1 (8 M urea, 100 mM Tris-HCl, 100 mM NaCl, 1 mM EDTA, pH 8.5) to obtain solution with 100 μM lysozyme concentration. Refolding was initiated by rapid dilution of 50 μL of this solution in 150 μL of buffer B2 (100 mM Tris-HCl, 100 mM NaCl, 1 mM EDTA, pH 8.5) containing the appropriate amount of redox agent (none for control experiment, 1.0 mM/0.2 mM GSH/GSSG for calibration experiment, 1 mM of GO-202 for disulfide oxidoreductase activity assay). The reactions were carried out at room temperature and quenched by addition of 10 μL of 2.5 M HCl to produce a pH of ca. 2. Buffers B1 and B2 were degassed prior to use by applying vacuum while stirred on magnetic stirrer for 30 min.
Reverse-phase chromatography data were obtained using Shimadzu Nexera HPLC with detection at 280 nm wavelength. The column used was Phenomenex Luna C-18 (5 μm particle size, 100 Å pore size, 150 mm length, 4.6 mm diameter); sample injection volume was 20 μL. HPLC solvent A was H2O/0.2% (v/v) trifluroacetic acid (TFA), solvent B was 90% CH3CN/10% H2O/0.2% TFA. Lysozyme was eluted using 30 min linear gradient from 35% to 45% of solvent B with a flow rate of 1 mL/min. Chromatograms from calibration GSH/GSSG experiments were in agreement with the previously reported data[54][63].

[3] = tested on: human fibrosarcoma cell line HT-1080; type: cell-based; conditions: for Viability of HT-1080 cells (MTS): single 20 μM dose, different incubation times, Fig. 9
[4] = tested on: human endometrial mesenchymal stem cells (eMSC); assay: MTS cell viability assay, eMSC; conditions: normal cells: eMSC; single dose, 96 h; Fig. 7E,F
Description: (§1) The data are according to the MTS assay, where the optical density was measured 96 h after the application of the peptide.
(§2) As a next step, we set out to test the cytotoxic effect of these peptides on the normal cells. In addition to the primary culture of dermal fibroblasts, which has been discussed above, we have also used human endometrial mesenchymal stem cells (eMSC).
(§3) Cell survival was measured using CellTiter 96 AQueous One Solution Cell Proliferation Assay (MTS test, Promega, USA). Cells have been seeded in a 96-well flat-bottom plate in 100 μl of culture medium (10^3 cells/well for A549, HT-1080, dermal fibroblasts and eMSC or 5 × 10^3 cells/well for ZR-75-1) and allowed to attach for 24 h. The starting amount of cells was chosen to account for their growth rate and degree of spreading such as to avoid excessive dilution in the beginning of the experiment or control cell overgrowth toward the end. After 24 h, 10 μl of peptide stock solution or PBS (control) were added to the wells. After 96 h, 20 μl of the MTS-reagent were added to each well and 1–2 h later optical density was measured at the wavelength 492 nm using the 96-well plate reader (Titertek Multiskan, Labsystems, Finland). All experiments were conducted in duplicate or triplicate.

[5] = tested on: human breast carcinoma cell line ZR-75-1; assay: MTS cell viability assay, ZR-75-1; conditions: single dose
Description: (§4) As a next step, we used MTS assay[27] to examine the effect of GO peptides on the viability of the four described cell cultures as a function of different treatment schemes. […] This treatment regimen is labeled 4 × 5 underneath the graph. Alternatively, we introduced 5 μM of peptide daily while exchanging the medium (denoted 4/5). Unlike the previous protocol, it avoids potential build-up of the peptide in the medium.
(§5) The treatment protocols are: 4 × 5 – four daily doses of 5 μM delivered without exchanging the growth medium; 4/5 – four daily doses of 5 μM delivered with exchanged growth medium; 1 × 5, 1 × 10, 1 × 15, and 1 × 20 – a single dose of 5, 10, 15, or 20 μM, respectively. MTS reagent was added to the wells 96 h after the first (and sometimes the only) application of the peptide and the optical density at 492 nm was measured to determine the fraction of the surviving cells.
as §1, §3

[6] = tested on: primary culture of human dermal fibroblasts (DF); assay: MTS cell viability assay, dermal fibroblasts; conditions: for Effect on proliferative activity at low dose (MTS): 5 μM single dose
Description: as §4, §5
(§6) As a next step, we set out to test the cytotoxic effect of these peptides on the normal cells.
as §3

[7] = tested on: human fibrosarcoma cell line HT-1080; type: cell-based
Excerpt: To evaluate the activity of DIL, CopYL and seven other peptides described in Table 1, we have conducted the dose-response measurements on the sensitive (HT-1080) and insensitive (ZR-75-1) cancer cell lines. The results are shown in Fig. 7A–D. For fibrosarcoma cells HT-1080, the best results are obtained using the peptide DOL with presumed disulfide oxidase properties. […] This is a much better performance than shown by GO-202 where the survival rate under identical conditions is 16%.
All experiments were conducted in duplicate or triplicate.

[8] = tested on: human breast carcinoma cell line ZR-75-1
Description: as §4, §5, §1, §3

[9] = tested on: primary culture of human dermal fibroblasts (DF)
Description: as §4, §5, §6, §3

[10] = tested on: human endometrial mesenchymal stem cells (eMSC)
Description: as §1, §2, §3

[11] = tested on: human breast carcinoma and prostate cancer cells; conditions: cited from earlier work
lysozyme = conditions: oxidative refolding of lysozyme in vitro; cited from earlier work
Excerpt: One instructive example of the redox-active peptides in Table 1 is the peptide labeled DIL (disulfide-isomerase-like). Originally, Woycechowsky and Raines have investigated the CGC peptide, where they measured the redox potential of −167 mV[40]. […] Recently, a longer peptide, RKCGCFF, has been introduced by Liu et al.[41]. The two basic residues, RK, have been added to the sequence with the intent to lower the thiol pKa values, while the two hydrophobic residues, FF, have been included to improve binding of the pept ...

In the case of GKAKCCK, the antimicrobial activity [1] is listed as “pronounced antimicrobial activity”.
For `N=C(N)NCCC[C@@H](N)C(=O)N[C@H](CCCNC(=N)N)C(=O)N[C@H](CCCNC(=N)N)C(=O)N[C@H](CCCNC(=N)N)C(=O)N[C@H](CCCNC(=N)N)C(=O)N[C@H](CCCNC(=N)N)C(=O)N[C@H](CCCNC(=N)N)C(=O)N[C@H](CCCNC(=N)N)C(=O)N[C@H](CCCNC(=N)N)C(=O)N[C@@H](CS)C(=O)N[C@@H](CCC(N)=O)C(=O)N[C@@H](CS)C(=O)N[C@@H](CCCNC(=N)N)C(=O)N[C@@H](CCCNC(=N)N)C(=O)N[C@@H](CCCCN)C(=O)N[C@@H](CC(N)=O)C(=O)O` [GO-202] (H-[dR][dR][dR][dR][dR][dR][dR][dR][dR]CQCRRKN-OH; N-terminus and C-terminus assumed), the “Disulfide oxidoreductase activity in oxidative refolding of lysozyme” value ([2]; 25 μM-scale lysozyme diluted from 100 μM stock, RP-HPLC 280 nm) was “moderately effective disulfide oxidoreductase”, the “Reaction time Tox after which a significant fraction of lysozyme is fully oxidized natively folded” value ([2]; RP-HPLC) was 15 min and the “Reaction time Tox after which native form of lysozyme is dominant” value ([2]; RP-HPLC) was 75 min. For the same compound, the “Reaction time Tox after which no distinct peak from reduced lysozyme is observed” value ([2]; RP-HPLC, control without peptide: partially oxidized after ca. 75 mins) was at most 1 min, the “Cell viability (MTS)” value ([3]; HT-1080, 4 × 5: four daily doses of 5 μM without exchanging growth medium, OD 492 nm 96 h after first application, duplicate or triplicate) was “significant impact” and the “Viability of HT-1080 cells (MTS)” value [3] was “cell death occurs soon after the GO-202 treatment”. For the same compound, the “Cytotoxic activity compared with GO-202 (dose-response, MTS)” value [4] was “highly sensitive”, the “Cytotoxic activity compared with GO-202 (dose-response, MTS)” value ([5]; OD measured 96 h after application, Fig. 7C,D) was “modestly active” and the “Effect on proliferative activity at low dose (MTS)” value (“Effect on proliferative activity” below) ([6]; dermal fibroblasts, 96 h) was “small increases in proliferative activity”. The “Cell viability (MTS)” value ([6]; dermal fibroblasts, 4 × 5: four daily doses of 5 μM without exchanging growth medium, OD 492 nm 96 h after first application) was “significant impact” and the “Cytotoxic activity compared with GO-202 (dose-response, MTS)” value ([6]; normal cells: dermal fibroblasts, single dose, 96 h, Fig. 7E,F) was “highly sensitive”.
For [R]9FFCPHCYQ [DOL], the “Cytotoxic activity compared with GO-202 (dose-response, MTS)” value [7] was “best results”, the “survival rate (MTS assay)” value ([7]; HT-1080, 96 h incubation with 20 μM peptide, single dose) was “essentially fully eliminated” and the “Cytotoxic activity compared with GO-202 (dose-response, MTS)” value [8] was “best result”. For the same compound, the “Cytotoxic activity compared with GO-202 (dose-response, MTS)” value [9] was “strongest effect”, the “Cytotoxic activity compared with GO-202 (dose-response, MTS)” value [10] was “outperform GO-202” and the “Effectiveness in killing cancer cells relative to GO-202” value ([5]; 20 μM, MTS 96 h) was “three times more effective”.
In the case of [R]9KCGCFF [DIL], the “Cytotoxic activity compared with GO-202 (dose-response, MTS)” value [7] is reported as “second best result”, the “Cytotoxic activity compared with GO-202 (dose-response, MTS)” value [8] is reported as “significantly outperform GO-202” and the “Cytotoxic activity compared with GO-202 (dose-response, MTS)” value [9] is reported as “less cytotoxic than GO-202”. For the same compound, the “Cytotoxic activity compared with GO-202 (dose-response, MTS)” value [10] was “less cytotoxic than GO-202” and the “Effect on proliferative activity” value ([6]; dermal fibroblasts, 96 h) was “small increases in proliferative activity”.
For [R]9SQCRRKN, the “Viability of HT-1080 cells (MTS)” value [3] was “inactive”.
With [R]9CQSRRKN the “Viability of HT-1080 cells (MTS)” value [3] was “inactive”.
In the case of “[R]9SQSRRKN [control: GO-202 with S-for-C substitution]”, the “Cytotoxic activity compared with GO-202 (dose-response, MTS)” value [7] is reported as “inefficient compared to GO-202” and the “Viability of HT-1080 cells (MTS)” value [3] is reported as “ineffective”.
For [R]9AQARRKNYGQLDIFP [CP-1], the Cytotoxic properties [11] is given as “no appreciable cytotoxic properties”.
In the case of “RKCGCFF [peptide of Liu et al., mimic of disulfide isomerase]”, the “Efficiency as a mimic of disulfide isomerase” value (lysozyme) is listed as “increased efficiency”.
For [R]9CCCRRKN, the “Cytotoxic activity compared with GO-202 (dose-response, MTS)” value [7] was “outperform the standard GO-202, although only by a small margin”, the “Cytotoxic activity compared with GO-202 (dose-response, MTS)” value [8] was “significantly outperform GO-202” and the “Cytotoxic activity compared with GO-202 (dose-response, MTS)” value [9] was “outperform GO-202”. For the same compound, the “Cytotoxic activity compared with GO-202 (dose-response, MTS)” value [10] was “strongest effect” and the “Effect on proliferative activity” value ([6]; dermal fibroblasts, 96 h) was “small increases in proliferative activity”.
With [R]9GCGPCG [DRL] the “Cytotoxic activity compared with GO-202 (dose-response, MTS)” value [7] was “inactive” and the “Cytotoxic activity compared with GO-202 (dose-response, MTS)” value [8] was “inactive”.
